Laboratory results published in patent publication US4649160A, “Substituted phenoxy-aminopropanols” (Hoffmann-La Roche Inc., priority 1980, dated 1987).
Counter-ions that a name gives are not always drawn. Like-named read-outs stand apart in the source and are kept apart here.

How the values were obtained:
β1-adrenoceptors = molecular target: T1, β1-adrenoceptors (Rattus norvegicus, UniProt P18090); test: 50% reduction in isoprenaline-induced tachycardia in rats (β-blocking activity, heart rate); assay type: in vivo; conditions: iv, read-out: ED50 (HR)
T1 construct: measured in rats by determining the dosage in μg/kg i.v. of substance being tested; from tissue; host or cells: living rat (in vivo, i.v. dosing); heart rate response to isoprenaline

β2-adrenoceptors = molecular target: T2, β2-adrenoceptors (Rattus norvegicus, UniProt P10608); test: 50% reduction in isoprenaline-induced depressor responses in rats (β-blocking activity, blood pressure); assay type: in vivo; conditions: iv, read-out: ED50 (BP)
T2 construct: measured in rats by determining the dosage in μg/kg i.v. of substance being tested; from tissue; host or cells: living rat (in vivo, i.v. dosing); vascular depressor response to isoprenaline

[1] = rats, i.v., dosage for 50% reduction in isoprenaline-induced tachycardia
[2] = rats, i.v., dosage for 50% reduction in isoprenaline-induced depressor responses

T2 sequence (P10608 whole entry): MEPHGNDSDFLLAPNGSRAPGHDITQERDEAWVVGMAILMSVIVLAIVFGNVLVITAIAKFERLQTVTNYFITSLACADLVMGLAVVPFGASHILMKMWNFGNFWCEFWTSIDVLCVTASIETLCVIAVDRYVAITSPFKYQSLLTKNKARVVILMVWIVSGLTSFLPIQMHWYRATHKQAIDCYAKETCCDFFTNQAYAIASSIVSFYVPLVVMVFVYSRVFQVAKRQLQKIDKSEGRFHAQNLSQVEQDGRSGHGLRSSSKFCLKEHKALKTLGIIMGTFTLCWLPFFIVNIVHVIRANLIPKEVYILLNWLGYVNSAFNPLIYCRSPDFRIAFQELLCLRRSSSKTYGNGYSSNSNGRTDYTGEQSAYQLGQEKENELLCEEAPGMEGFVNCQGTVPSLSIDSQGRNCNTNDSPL
T1 sequence (P18090 whole entry): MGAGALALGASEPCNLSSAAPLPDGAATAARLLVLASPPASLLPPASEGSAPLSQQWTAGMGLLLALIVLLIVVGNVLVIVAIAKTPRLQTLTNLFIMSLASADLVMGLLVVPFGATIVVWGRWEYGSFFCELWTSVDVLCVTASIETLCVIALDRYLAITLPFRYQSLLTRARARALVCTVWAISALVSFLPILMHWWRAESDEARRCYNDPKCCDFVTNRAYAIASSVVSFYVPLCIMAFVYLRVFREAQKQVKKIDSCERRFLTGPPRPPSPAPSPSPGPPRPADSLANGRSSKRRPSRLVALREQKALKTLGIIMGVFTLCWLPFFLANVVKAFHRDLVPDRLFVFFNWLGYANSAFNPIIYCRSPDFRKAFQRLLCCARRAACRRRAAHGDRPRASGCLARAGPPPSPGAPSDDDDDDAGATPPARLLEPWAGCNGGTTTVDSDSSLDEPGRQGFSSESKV

Row | Compound | ED50 (β1-adrenoceptors; [1]) [mg/kg] | ED50 (β2-adrenoceptors; [2]) [mg/kg] | ED50 (β1-adrenoceptors) [mg/kg] | ED50 (β2-adrenoceptors) [mg/kg]
1 | CC(C)NCC(O)COc1ccc(OCCOCCc2ccccc2)cc1Cl (centres unmarked) [1-[2-chloro-4-[2-(phenethyloxy)ethoxy]phenoxy]-3-isopropylamino-2-propanolhydrochloride] | 0.025 | 0.834 |  | 
2 | CC(C)NCC(O)COc1ccc(OCCOCCc2ccc(F)cc2)cc1 (centres unmarked) [1-[4-[2-(4-fluorophenethyloxy)-ethoxy]phenoxy]-3-isopropylamino-2-propanolhydrochloride] | 0.003 | > 2 |  | 
3 | CC(C)NCC(O)COc1ccc(OCCOCCc2ccccc2)cc1.Cl (centres unmarked) [1-isopropylamino-3-[4-(2-phenethyloxyethoxy)phenoxy]-2-propanol hydrochloride] |  |  | 0.015 | > 2
4 | CC(C)(C)NCC(O)COc1ccc(OCCOCCc2ccccc2)cc1.Cl (centres unmarked) [1-tert.butylamino-3-[4-(2-phenethyloxyethoxy)phenoxy]-2-propanol hydrochloride] |  |  | 0.018 | 0.979
